Reference: patent publication US5160483A, “Fragment of TNF-α for promoting wound healing” (The University of Tennessee Research Corporation, priority 1991, dated 1992)
Read-outs that look alike come from different tables or passages of the source.

Columns and labels:
[1] = known property of the complete protein; cited from earlier work
[2] = tested on: fibroblasts and monocytes; test: Intradermal injection in guinea pigs; format: in vivo
Text: The composition accomplishes this without the problems attendant on the previously developed materials. The fragment includes amino acids 31 through 68 SEQ ID No.: 1 of TNF-α which has the sequence: [drawing 1]

[3] = tested on: fibroblasts; test: Chemotaxis of fibroblasts in chemotaxis chambers, fragment in lower compartment (FIG. 1); format: cell-based; settings: fragment in PBS in lower compartment of chemotaxis chambers
Method: (§1) Solutions of varying concentrations of the fragment of TNF-α comprising amino acids 31 through 68 SEQ ID No.: 1 in phosphate buffered saline (PBS) were added to the lower compartment of chemotaxis chambers. The number of fibroblasts migrating to the lower compartment was counted. The response curve is bell-shaped, with a maximum at 100 nM. An analysis of the effects of varying concentration gradients of the protein fragment (a Zigmond-Hirsch checkerboard analysis) was performed by adding different concentrations of the fragment to the upper and/or lower compartments of a chemotaxis chamber. The number of fibroblasts migrating to the lower surface of each filter was counted.

[4] = tested on: fibroblasts; test: Zigmond-Hirsch checkerboard analysis of fibroblast migration in chemotaxis chamber; format: cell-based
Method: as §1
The fibroblasts migrate from the upper chamber to the lower chamber since there is very little of the fragment in the upper chamber and there is quite a large concentration of the fragment in the lower chamber. This simulates the condition at a wound site where there has been an application of the fragment to the wound. The concentration of the fragment in the surrounding tissue will be quite low compared to the concentration at the wound site. Therefore, the fibroblasts will migrate from the area of low concentration of the fragment to the area of high concentration.

[5] = Cytotoxicity

TNF-α
cytotoxicity [1]: known to be a cytotoxin

fragment of TNF-α comprising amino acids 31 through 68 SEQ ID No.: 1: 38-residue synthetic polypeptide, amino acids 31 through 68 of TNF-α (SEQ ID No.: 1), about 3,800 Da (RRANALLANGVELRDNQLVVPSEGLYLIYSQVLFKGQG; Tumor necrosis factor, soluble form; UniProt P01375 107-144, looked up, fragment)
amount of connective tissue at the injection site [2]: increase in the amount of connective tissue at the injection site | migration of fibroblasts and monocytes into the area of the wound [2]: increased migration of fibroblasts and monocytes into the area of the wound | concentration at the maximum of the bell-shaped fibroblast migration response curve [3]: 100 nM | number of fibroblasts migrating to the lower surface of each filter ([4]; upper compartment 0 nM, lower compartment 21 nM): 31 ± 4 | number of fibroblasts migrating to the lower surface of each filter ([4]; upper compartment 0 nM, lower compartment 41 nM): 57 ± 3 | number of fibroblasts migrating to the lower surface of each filter ([4]; upper compartment 0 nM, lower compartment 164 nM): 73 ± 4 | number of fibroblasts migrating to the lower surface of each filter ([4]; upper compartment 0 nM, lower compartment 329 nM): 86 ± 13 | number of fibroblasts migrating to the lower surface of each filter ([4]; upper compartment 21 nM, lower compartment 0 nM): 20 ± 6 | number of fibroblasts migrating to the lower surface of each filter ([4]; upper compartment 21 nM, lower compartment 21 nM): 9 ± 1 | number of fibroblasts migrating to the lower surface of each filter ([4]; upper compartment 21 nM, lower compartment 41 nM): 49 ± 7 | number of fibroblasts migrating to the lower surface of each filter ([4]; upper compartment 21 nM, lower compartment 164 nM): 46 ± 2 | number of fibroblasts migrating to the lower surface of each filter ([4]; upper compartment 21 nM, lower compartment 329 nM): 67 ± 2 | number of fibroblasts migrating to the lower surface of each filter ([4]; upper compartment 41 nM, lower compartment 0 nM): 31 ± 2 | number of fibroblasts migrating to the lower surface of each filter ([4]; upper compartment 41 nM, lower compartment 21 nM): 28 ± 5 | number of fibroblasts migrating to the lower surface of each filter ([4]; upper compartment 41 nM, lower compartment 41 nM): 26 ± 4 | number of fibroblasts migrating to the lower surface of each filter ([4]; upper compartment 41 nM, lower compartment 164 nM): 47 ± 5 | number of fibroblasts migrating to the lower surface of each filter ([4]; upper compartment 41 nM, lower compartment 329 nM): 57 ± 6 | number of fibroblasts migrating to the lower surface of each filter ([4]; upper compartment 164 nM, lower compartment 0 nM): 14 ± 2 | number of fibroblasts migrating to the lower surface of each filter ([4]; upper compartment 164 nM, lower compartment 21 nM): 11 ± 1 | number of fibroblasts migrating to the lower surface of each filter ([4]; upper compartment 164 nM, lower compartment 41 nM): 16 ± 3 | number of fibroblasts migrating to the lower surface of each filter ([4]; upper compartment 164 nM, lower compartment 164 nM): 22 ± 4 | number of fibroblasts migrating to the lower surface of each filter ([4]; upper compartment 164 nM, lower compartment 329 nM): 43 ± 3 | number of fibroblasts migrating to the lower surface of each filter ([4]; upper compartment 329 nM, lower compartment 0 nM): 16 ± 3 | number of fibroblasts migrating to the lower surface of each filter ([4]; upper compartment 329 nM, lower compartment 21 nM): 10 ± 1 | number of fibroblasts migrating to the lower surface of each filter ([4]; upper compartment 329 nM, lower compartment 41 nM): 9 ± 1 | number of fibroblasts migrating to the lower surface of each filter ([4]; upper compartment 329 nM, lower compartment 164 nM): 12 ± 2 | number of fibroblasts migrating to the lower surface of each filter ([4]; upper compartment 329 nM, lower compartment 329 nM): 8 ± 1 | type of fibroblast migration induced (checkerboard analysis) ([4]; varying concentration gradients, Table I): induced mostly chemotactic migration of fibroblasts | cytotoxicity [5]: without any showing of cytotoxicity
